The source of these data is patent publication US20130131079A1, “FLUFENOXINE DERIVATIVES FOR THE TREATMENT AND PREVENTION OF AMYLOID PATHOLOGIES” (FAES FARMA, S.A., priority 2010, published 2013).

Where a name gives a salt, the structure may show the parent alone. Read-outs that look alike come from different tables or passages of the source.

The test system of data set [1] is tau phosphorylation. The experiment in a line: Ability to modify levels of tau phosphorylation in primary culture of cerebellar granule neurons and/or brain cortex (Western Blot, Tau 1, PHF1). It counts as cell-based, mice. Particulars: CGN or brain cortex neurons. The procedure: a)—Mouse cortex neurons: brains were obtained from 16-18-day old embryos. The two hemispheres, olfactory bulbs and brain stem were separated. The meninges were removed and the cut tissue was transferred to a 50 ml flask. 10 ml HBSS without Ca without Mg (without phenol red) were added. Two further washings with 3 ml HBSS were performed and digestion was performed with Trypsin-DNase at 37° C. The suspension was broken up by passing the material through glass pipettes with different thicknesses. The cells were cut and cultured in Dulbecco's Modified Eagle's medium (DMEM)+10% FCS. After 3 hours the final medium was placed in Neurobasal medium+B27 Supplement+KCl+glutamine+antibiotics.
(§1) b) CGN: Cerebellar granule neurons derived from wild-type or transgenic mice were obtained from 6-day old mice. The basic process was similar to the previous one: obtaining and breaking up the tissue was similar and culturing and maintaining in final media was identical. The cerebellum was broken up by treatment with trypsin-EDTA for about 15-20 min and subsequently cultured in plates treated with Poly-L-Lysine (50 micrograms/m1). The neurons were maintained in a serum-free medium, Neurobasal medium+B27 Supplement+KCl+glutamine+antibiotics.
Ability to Modify Levels of Tau Phosphorylation in Primary Culture of Cerebellar Granule Neurons (CGN) and/or Brain Cortex Derived from Mice (Wild Strain)
The data was obtained in relation to the mean of 3 independent experiments of the relative level of tau-1 in soluble cell extracts obtained from cerebellar granule or brain cortex neurons treated with the indicated compounds. The ability to modify the level of tau phosphorylation in cortex neurons or cerebellar granule of […] was analyzed through Western Blot using specific antibodies in a series of fosfo-epitopes (Tau 1, PHF1) after 1, 2 and 3 incubation hours. Actine was used as reference (indicator of the total mass).

Data set [2] concerns primary cultures of CGN (cerebellar granule neurons). The experiment in a line: Toxicity and cell viability in primary cultures of CGN. It counts as cell-based, mice. To be noted: 24 or 48 hours, Coomassie staining, absorbance at 595 nm. As for the experimental part: as §1
The cell viability of different strains was studied in the presence of the compounds of the invention. […] In the toxicity assays, the cells (whether neurons or established lines) were seeded in 24-well plates and exposed to different concentrations of the drug in Dulbecco's Modified Eagle's medium (DMEM)+10% FCS or in the Neurobasal medium+B27 Supplement+KCl+glutamine+antibiotics when primary neurons were used. The treatments were stopped after 24 or 48 hours by fixing the cells with 4% paraformaldehyde for 30 minutes. The fixed cells were stained with 0.2% Coomassie Brilliant blue R-250 in 10% acetic acid/40% methanol for 1 hour at ambient temperature. […] Then it was acidified with 10% trichloroacetic acid and the number of cells was measured in an Elisa reader, with absorbance at 595 nm. […]

The test system of data set [3] is cell line CHO-APP-PS1. The experiment in a line: Toxicity and cell viability in cultures of cell line CHO-APP-PS1. It counts as cell-based, Chinese hamster. As for the experimental part: The cell viability of different strains was studied in the presence of the compounds of the invention. […] In the toxicity assays, the cells (whether neurons or established lines) were seeded in 24-well plates and exposed to different concentrations of the drug in Dulbecco's Modified Eagle's medium (DMEM)+10% FCS or in the Neurobasal medium+B27 Supplement+KCl+glutamine+antibiotics when primary neurons were used. The treatments were stopped after 24 or 48 hours by fixing the cells with 4% paraformaldehyde for 30 minutes. The fixed cells were stained with 0.2% Coomassie Brilliant blue R-250 in 10% acetic acid/40% methanol for 1 hour at ambient temperature. The stained cells were washed thoroughly with distilled water, and once dried the incorporated dye was extracted with 0.1 N NaOH in 50% methanol. Then it was acidified with 10% trichloroacetic acid and the number of cells was measured in an Elisa reader, with absorbance at 595 nm. DMSO (10 μl/well) was used as a control. […] The medium was collected for 6 hours, and then it was diluted 5 times and analyzed in duplicate using a Biosource ELISA kit (h 1-40 βAmyloid—Ref #KHB3482).

[4] abbreviates: at 5 and/or 10 micromolar, relative level of tau-1.
[5] abbreviates: relative level of tau-1 in soluble cell extracts, mean of 3 experiments.

As for `FC(F)(F)c1ccccc1OC(c1ccccc1)C1CCNCC1` (stereo not drawn) [COMPOUND 29], in data set [1] (setting [4]), the “ability to modify the level of tau phosphorylation” value (shortened to “ability to modify the level”) is “modify tau phosphorylation”.

As to `c1ccc(C(Oc2cccc3ccccc23)C2CCNCC2)cc1` (stereo not drawn) [COMPOUND 35], in data set [1] (setting [4]), the “ability to modify the level” value was “modify tau phosphorylation”.

Regarding `Clc1ccc(/C=C(\c2ccccc2)C2CCNCC2)cc1` [COMPOUND 36, (Z)-4-[(1-phenyl)-2-(4-chlorophenyl)ethen-1-yl]piperidine], the “ability to modify the level” value in data set [1] (setting [4]) is reported as “modify tau phosphorylation”.

In the case of `Fc1ccc(OC(CC2CCNCC2)c2ccccc2)cc1` (stereo not drawn) [COMPOUND 27], in data set [1] (setting [4]), the “ability to modify the level” value was “modify tau phosphorylation”.

Turning to `Fc1cc(COc2ccc3c(c2)OCO3)cc(OC(c2ccccc2)C2CCNCC2)c1` (racemic) [COMPOUND 32, hydrochloride], the “ability to modify the level” value in data set [1] (setting [4]) is recorded as “modify tau phosphorylation”.

In the case of `c1ccc(-c2ccccc2OC(c2ccccc2)C2CCNCC2)cc1` (stereo not drawn) [COMPOUND 40], the “ability to modify the level” value in data set [1] (setting [4]) is “modify tau phosphorylation”.

`Clc1ccc(C(Oc2cccc3ccccc23)C2CCNCC2)cc1` (racemic) [COMPOUND 31, (+/−)-4-[(Naphthalen-1-oxy)(4-chlorophenyl)methyl]piperidine hemisulphate]: the “toxicity (cell viability)” value in data set [2] is on record as “somewhat toxic only at certain concentrations”. The “ability to modify the level” value in data set [1] (setting [4]) was “modify tau phosphorylation”.

With `Ic1cccc(OC(c2ccccc2)C2CCNCC2)c1` (stereo not drawn) [COMPOUND 3], in data set [3], the “toxicity (cell viability)” value is recorded as “none of them giving rise to statistically relevant toxicity levels”. The “ability to modify the level” value in data set [1] (setting [5]) is “modify tau phosphorylation”.

As to `Cc1ccc(Cl)cc1OC(c1ccccc1)C1CCNCC1` (stereo not drawn) [COMPOUND 10], the “toxicity (cell viability)” value in data set [3] (cultures of cell line CHO-APP-PS1, 24 or 48 hours, Coomassie staining, absorbance at 595 nm) is “none of them giving rise to statistically relevant toxicity levels”. For the same compound, in data set [1] (setting [5]), the “ability to modify the level” value is listed as “modify tau phosphorylation”.

With `NCCN1CCC(C(Oc2cccc(F)c2)c2ccccc2)CC1` (racemic) [COMPOUND 37, (+/−)-4-[(3-fluorophenoxy)phenylmetyl]piperidin-1-yl]ethylamine oxalate], the “toxicity (cell viability)” value in data set [2] is “somewhat toxic only at certain concentrations”. In addition, in data set [1] (setting [4]), the “ability to modify the level” value is “modify tau phosphorylation”.

In the case of `Fc1ccccc1OC(c1ccccc1)C1CCNCC1` (stereo not drawn) [COMPOUND 21], the “ability to modify the level” value in data set [1] (setting [4]) is recorded as “modify tau phosphorylation”.

For the compound `Clc1ccc(OC(c2ccccc2)C2CCNCC2)cc1Cl` (stereo not drawn) [COMPOUND 34], in data set [1] (setting [4]), the “ability to modify the level” value is “modify tau phosphorylation”.

With `FC(F)(F)c1ccc(OC(c2ccccc2)C2CCNCC2)cc1` (stereo not drawn) [COMPOUND 41], in data set [1] (setting [4]), the “ability to modify the level” value is listed as “modify tau phosphorylation”.

On to `Fc1ccc(OC(CC2CCNCC2)c2ccc(F)cc2)cc1` (stereo not drawn) [COMPOUND 24], for which the “ability to modify the level” value in data set [1] (setting [4]) is “modify tau phosphorylation”.
